Source: patent publication US9414998B2, “Preventing or ameliorating agent for pigmentation” (Pola Chemical Industries Inc., priority 2009, dated 2016)

tested on: pigmented guinea pigs; assay: Ultraviolet ray-induced pigmentation inhibition test using pigmented guinea pigs; format: in vivo, guinea pig; conditions: 3% (w/v) in ethanol, 30 μL once a day for 5 weeks; L* on 36th day minus L* before ultraviolet radiation; average ± standard deviation of 8 samples; solvent control −11.83 ± 0.78
Text: Skins of backs of eight pigmented guinea pigs were subjected to the hair removal and the hair shaving with electric hair clippers and shaver, and these sites were covered with black cloths each having four radiation windows of 2×2 cm in total disposed at two upper left and right positions and two lower left and right positions respectively. After that, the ultraviolet ray was radiated at 300 mJ/cm^2 by using FL20S•E30 lamp as the light source. This operation was repeatedly performed on 1st, 3rd, 5th, and 8th days of the test to induce the pigmentation at the four test sites. The compound to be evaluated (Compound 1) was dissolved and prepared in ethanol so that the concentration was 3% (w/v). Ethanol was applied as the solvent control group. The application of each of the compounds to be evaluated was started from the time of completion of the ultraviolet radiation on the 1st day of the test. Each of the compounds to be evaluated was applied in an amount of 30 μL once a day to the predetermined test sites, and this procedure was continuously carried out for 5 weeks (until 35th day of the test). […]

| Compound | ΔL* value |
| --- | --- |
| Cc1ccc(C(=O)N[C@@H](CO)C(=O)O)cc1 [Compound 1, N-(p-methylbenzoyl)-L-serine] | −9.98 ± 0.71 |

tested on: normal human melanocyte; assay: Ultraviolet B (UVB)-induced activation inhibition test using normal human melanocyte (MTT, supernatant of UVB-irradiated keratinocytes); format: cell-based; conditions: light or radiation study, UVB 5 mJ/cm^2, compound 100 mM in DMSO diluted 1,000 times, formazan production ratio, DMSO negative control irradiated with UVB = 100, average of three measurements, read-out: Melanocyte proliferation ratio Average (%)
Experimental: The suppressing effect of each of the compounds, which was exerted on the activation of melanocyte by the melanocyte activating factor produced and released from normal human keratinocyte by the ultraviolet B (UVB), was investigated by using the index of the cell proliferation function of normal human melanocyte.
Normal human keratinocyte cells (Kurabo Industries, Ltd.) were seeded by using Humedia-KG2 medium (Kurabo Industries, Ltd.) at a concentration of 10×10^4 cells/well in 24-well plate, followed by being cultured for 24 hours.
The compound to be evaluated was dissolved at a concentration of 100 mM in DMSO, which was diluted 1,000 times with Humedia-KG2 medium and used as a sample solution. As for the positive control group, tranexamic acid was dissolved at a concentration of 100 mM in DMSO, which was diluted 1,000 times with Humedia-KG2 medium and used as a positive control sample solution. As for the negative control group, DMSO was diluted 1,000 times with Humedia-KG2 medium, which was used as a negative control sample solution. A concentration, at which the cell proliferation of normal human melanocyte was not affected, was set for each of the compounds.
The medium of normal human keratinocyte was exchanged with Humedia-KG2 medium (sample solution) containing the compound at a predetermined concentration, and the cells were cultured for further 24 hours. After that, the medium was exchanged with PBS (phosphate buffered saline), and cells were irradiated with the ultraviolet B (UVB) at 5 mJ/cm^2 by using an ultraviolet lamp (FL20S•E-30/DMR, Toshiba Medical Supply Co., Ltd.) as a light source. After the ultraviolet radiation, PBS was exchanged with the sample solution. Cells were cultured for further 24 hours, and then the culture supernatant was collected.
Normal human melanocyte cells were seeded to 96-well plate by using a medium of Medium 254 (Kurabo Industries, Ltd.) so that the concentration was 3×10^4 cells/well, and the cultivation was performed for 24 hours. After that, the medium was exchanged with the culture supernatant collected from normal human keratinocyte, and the cells were cultured for further 24 hours. After the cultivation for 24 hours, the medium was exchanged with Humedia-KG2 medium containing 0.5 mg/mL of 3-(4,5-dimethyl-2-thiazoyl)-2,5-diphenyl-2H-tetrazolium bromide (MTT), and the cultivation was performed for 3 hours.
The formazan amount was determined by measuring the absorbances at 570 nm and 690 nm of cell lysate prepared with 2-propanol by means of a microplate reader (Benchmark Plus, Bio-Rad) and subtracting the absorbance at 690 nm from the absorbance at 570 nm.
The suppressing effect of each of the compounds on the melanocyte proliferation was represented by the percentage (%) as the formazan production ratio while the absorbance of the DMSO added group (negative control group) irradiated with the ultraviolet B (UVB) was assumed as 100.
It can be judged that the lower the production ratio of formazan is, the lower the melanocyte proliferation ratio is. Therefore, when the production ratio of formazan is lower, it is possible to judge that the suppressing activity of the compound to be evaluated is high with respect to the activation of melanocyte by the melanocyte activating factor produced and released by normal human keratinocyte.

| Compound | activity at 100 µM |
| --- | --- |
| Cc1ccc(C(=O)NC(CO)C(=O)O)cc1 (racemic) [Compound 3, N-(p-methylbenzoyl)serine] | 61.6% |
| COCC(NC(=O)c1ccc(C)cc1)C(=O)O (racemic) [Compound 9, N-(p-methylbenzoyl)-O-methylserine] | 62.3% |
| COCC(NC(=O)c1ccc2ccccc2c1)C(=O)O (racemic) [Compound 13, N-(2-naphthoyl)-O-methylserine] | 80.3% |
| COCC(NC(=O)c1ccccc1)C(=O)O (racemic) [Compound 16, N-benzoyl-O-methylserine] | 65.5% |
| Cc1ccc(C(=O)N[C@@H](CO)C(=O)O)cc1 [Compound 1, N-(p-methylbenzoyl)-L-serine] | 57% |
| O=C(N[C@@H](CO)C(=O)O)c1ccccc1 [Compound 2, N-benzoyl-serine] | 60.9% |
| O=C(N[C@@H](CO)C(=O)O)c1ccc(F)cc1 [Compound 4, N-(p-fluorobenzoyl)serine] | 55.3% |
| COc1ccc(C(=O)N[C@@H](CO)C(=O)O)cc1 [Compound 5, N-(p-methoxybenzoyl)serine] | 63.4% |
| CCc1ccc(C(=O)N[C@@H](CO)C(=O)O)cc1 [Compound 7, N-(p-ethylbenzoyl)serine] | 65.1% |
| O=C(N[C@@H](CO)C(=O)O)c1ccc(C(F)(F)F)cc1 [Compound 8, N-(p-trifluoromethylbenzoyl)serine] | 53.9% |
| O=C(N[C@@H](CO)C(=O)O)c1ccc2ccccc2c1 [Compound 10, N-(2-naphthoyl)serine] | 82.4% |
| CC(=O)OC[C@H](NC(=O)c1ccc(C)cc1)C(=O)O [Compound 11, N-(p-methylbenzoyl)-O-acetylserine] | 71.8% |
| COC(=O)[C@H](CO)NC(=O)c1ccc2ccccc2c1 [Compound 12, N-(2-naphthoyl)serine methyl ester] | 83.1% |
| O=C(N[C@@H](CO)C(=O)O)c1ccc(-c2ccccc2)cc1 [Compound 14, N-(4-phenylbenzoyl)serine] | 75% |
| Cc1ccc(C(=O)NC(CO)C(=O)O)cc1 (stereo not drawn) [Compound 15, N-(p-methylbenzoyl)serine] | 60.2% |
| CCOC(=O)[C@H](CO)NC(=O)c1ccc(C)cc1 [Compound 17, N-(p-methylbenzoyl)serine ethyl ester] | 73.6% |
| NC[C@H]1CC[C@H](C(=O)O)CC1 [Tranexamic acid, tranexamic acid, reference compound] | 82% |
